Converted amounts (≈) assume the structure as drawn. Where two headings read alike, the source gives them in different places.
Columns and labels:
[1] = Dynamic solubility test (two-step dissolution, SGF then FaSSIF) of solid dispersions; format: physicochemical; details: 37° C.
Protocol: 20 mg each of the solid dispersion products from formulations 1 to 9 in Example 4 was taken and added with 3 mL of SGF (target concentration of API: […]). The mixture was stirred at 37° C. and 500 rpm for 0.25 hours and 0.5 hours, respectively, followed by sampling. 3 mL of 2× FaSSIF was then added to adjust the solution pH to approximately 6.5. The mixture was stirred for another 0.25 hours, 0.5 hours, 1 hour, and 1.5 hours, respectively, followed by sampling. The collected samples were analyzed by UPLC, and the final solution pH was measured.

[2] = Solubilization test of compound 1 with surfactants in FaSSIF; format: physicochemical; details: for solubility at 0.5 h / solubility at 1 h / solubility at 2 h / solubility at 4 h: 37° C., read-out: Concentration of API in vehicle
Protocol: 50 mg of compound 1 was weighed into 5 mL of FaSSIF medium containing 5 mg of different surfactants (target concentration of API (compound 1):10 mg/mL). The mixture was shaken at 500 rpm and 37° C. 0.5 mL each of the suspension samples was taken at 0.5 hours, 1 hour, 2 hours, and 4 hours, respectively, centrifuged at 14,000 rpm for 5 minutes, and the supernatant was diluted and analyzed by HPLC.

[3] = FaSSIF (pH 6.5) with 5 mg Cremophor EL, 50 mg API in 5 mL
[4] = FaSSIF (pH 6.5) with 5 mg Cremophor RH40, 50 mg API in 5 mL
[5] = FaSSIF (pH 6.5) with 5 mg SLS, 50 mg API in 5 mL
[6] = FaSSIF (pH 6.5) with 5 mg Solutol HS15, 50 mg API in 5 mL
[7] = FaSSIF (pH 6.5) with 5 mg VE-TPGS, 50 mg API in 5 mL
[8] = FaSSIF (pH 6.5), no surfactant, 50 mg API in 5 mL
[9] = fassif with poloxamer 188, FaSSIF (pH 6.5) with 5 mg Poloxamer 188, 50 mg API in 5 mL
[10] = fassif with poloxamer 407, FaSSIF (pH 6.5) with 5 mg Poloxamer 407, 50 mg API in 5 mL
[11] = fassif with tween 80, FaSSIF (pH 6.5) with 5 mg Tween 80, 50 mg API in 5 mL

NS(=O)(=O)c1cc(NC(=O)Cc2ccccc2Cl)cc2nn(C(F)F)cc12 [compound 1]
Solubility of API in vehicle ([1]; Step 1 (SGF, pH 1.6), 0.25 h, target API 2 mg/mL): 33.7 µg/mL
Solubility of API in vehicle ([1]; Step 1 (SGF, pH 1.6), 0.5 h, target API 2 mg/mL): 65.1 µg/mL
Solubility of API in vehicle ([1]; Step 2 (FaSSIF, pH 6.5), 0.75 h): 13.7 µg/mL
Solubility of API in vehicle ([1]; Step 2 (FaSSIF, pH 6.5), 1.0 h): 33.5 µg/mL
Solubility of API in vehicle ([1]; Step 2 (FaSSIF, pH 6.5), 2.0 h): 18.0 µg/mL
Solubility of API in vehicle ([1]; Step 2 (FaSSIF, pH 6.5), […]): 15.0 µg/mL
solubility at 0.5 h [2, 3]: 1570 µg/mL (≈ 3800 µM)
solubility at 1 h [2, 3]: 1600 µg/mL (≈ 3870 µM)
solubility at 2 h [2, 3]: 1540 µg/mL (≈ 3710 µM)
solubility at 4 h [2, 3]: 1510 µg/mL (≈ 3640 µM)
solubility at 0.5 h [2, 4]: 1580 µg/mL (≈ 3820 µM)
solubility at 1 h [2, 4]: 1600 µg/mL (≈ 3870 µM)
solubility at 2 h [2, 4]: 1570 µg/mL (≈ 3780 µM)
solubility at 4 h [2, 4]: 1540 µg/mL (≈ 3710 µM)
solubility at 0.5 h [2, 5]: 614 µg/mL (≈ 1480 µM)
solubility at 1 h [2, 5]: 622 µg/mL (≈ 1500 µM)
solubility at 2 h [2, 5]: 639 µg/mL (≈ 1540 µM)
solubility at 4 h [2, 5]: 652 µg/mL (≈ 1570 µM)
solubility at 0.5 h [2, 6]: 1470 µg/mL (≈ 3530 µM)
solubility at 1 h [2, 6]: 1500 µg/mL (≈ 3620 µM)
solubility at 2 h [2, 6]: 1480 µg/mL (≈ 3570 µM)
solubility at 4 h [2, 6]: 1460 µg/mL (≈ 3510 µM)
solubility at 0.5 h [2, 7]: 2110 µg/mL (≈ 5100 µM)
solubility at 1 h [2, 7]: 2120 µg/mL (≈ 5120 µM)
solubility at 2 h [2, 7]: 2090 µg/mL (≈ 5040 µM)
solubility at 4 h [2, 7]: 2080 µg/mL (≈ 5010 µM)
solubility at 0.5 h [2, 8]: 33.9 µg/mL (≈ 81.7 µM)
solubility at 1 h [2, 8]: 22.9 µg/mL (≈ 55.2 µM)
solubility at 2 h [2, 8]: 15.2 µg/mL (≈ 36.6 µM)
solubility at 4 h [2, 8]: 14.9 µg/mL (≈ 35.9 µM)
Solubility of compound 1 with surfactants ([2]; FaSSIF with SLS, Cremophor EL, Cremophor RH40, VE-TPGS, Tween 80, Poloxamer 407, or Solutol HS15, in words): significantly improved
solubility at 0.5 h [2, 9]: 116 µg/mL (≈ 279 µM)
solubility at 1 h [2, 9]: 123 µg/mL (≈ 297 µM)
solubility at 2 h [2, 9]: 104 µg/mL (≈ 251 µM)
solubility at 4 h [2, 9]: 93.9 µg/mL (≈ 226 µM)
solubility at 0.5 h [2, 10]: 838 µg/mL (≈ 2020 µM)
solubility at 1 h [2, 10]: 861 µg/mL (≈ 2070 µM)
solubility at 2 h [2, 10]: 842 µg/mL (≈ 2030 µM)
solubility at 4 h [2, 10]: 797 µg/mL (≈ 1920 µM)
solubility at 0.5 h [2, 11]: 899 µg/mL (≈ 2170 µM)
solubility at 1 h [2, 11]: 893 µg/mL (≈ 2150 µM)
solubility at 2 h [2, 11]: 888 µg/mL (≈ 2140 µM)
solubility at 4 h [2, 11]: 887 µg/mL (≈ 2140 µM)

From US20260284010A1, “SOLID DISPERSION OF P2X4 INHIBITOR, AND PREPARATION METHOD THEREFOR AND USE THEREOF” (priority 2023, published 2026)
